Experimental data taken from patent publication US10131652B2, “Pyrimidinyloxy benzene derivatives as herbicides” (E. I. DU PONT DE NEMOURS AND COMPANY, priority 2014, dated 2018).

Legend:
Format in all cases: in vivo
[1] = system: ducksalad (Heteranthera limosa); assay: Test C flooded paddy test plant response; settings: Flood, 250 g ai/ha; scale of 0 to 100 where 0 is no effect and 100 is complete control; 13 to 15 days
In short: (§1)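 2-leaf plants; flood 3 cm, cpd into paddy water; greenhouse 13–15 d; visual score vs untreated, 0 = no effect, 100 = complete control; dash = no result.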

[2] = system: small-flower umbrella sedge (Cyperus difformis); assay: Test C flooded paddy test plant response; settings: Flood, 250 g ai/ha; scale of 0 to 100 where 0 is no effect and 100 is complete control; 13 to 15 days
In short: as §1

[3] = system: barnyardgrass (Echinochloa crus-galli); assay: Test C flooded paddy test plant response; settings: Flood, 250 g ai/ha; scale of 0 to 100 where 0 is no effect and 100 is complete control; 13 to 15 days
In short: as §1

rice (Oryza sativa) = assay: Test C flooded paddy test plant response; settings: Flood, 250 g ai/ha; scale of 0 to 100 where 0 is no effect and 100 is complete control; 13 to 15 days
In short: as §1

[4] = system: winter wheat (Triticum aestivum); assay: Test D pre-/postemergence plant response
In short: (§2)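 Seeds were planted in a loam and sand blend and sprayed preemergence. In parallel, seedlings grown in peat moss/vermiculite medium were sprayed postemergence at 2 to 18 cm height. Both used a surfactant-containing non-phytotoxic solvent. Greenhouse ratings at 13 to 15 days used a 0–100 control scale.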

soybean (Glycine max) = assay: Test D pre-/postemergence plant response
In short: as §2

[5] = system: velvetleaf (Abutilon theophrasti); assay: Test D pre-/postemergence plant response
In short: as §2

[6] = system: large (Lg) crabgrass (Digitaria sanguinalis); assay: Test D pre-/postemergence plant response
In short: as §2

[7] = system: oilseed rape (Brassica napus); assay: Test D pre-/postemergence plant response
In short: as §2

[8] = system: johnsongrass (Sorghum halepense); assay: Test D pre-/postemergence plant response
In short: as §2

[9] = system: yellow nutsedge (Cyperus esculentus); assay: Test D pre-/postemergence plant response
In short: as §2

[10] = system: chickweed (common chickweed, Stellaria media); assay: Test D postemergence plant response; settings: for Chickweed plant response rating: scale 0 to 100 (0 no effect, 100 complete control); for Plant response rating, Chickweed: scale 0 to 100, 0 no effect, 100 complete control
In short: (§3)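 The formulated test chemicals were applied over the foliage of young potted plants (2 to 18 cm tall), which were then held under greenhouse conditions. Between days 13 and 15 each species was rated by eye versus controls, from 0 for no effect up to 100 for complete control.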

wild oat (Avena fatua) = assay: Test D postemergence plant response
In short: as §3

kochia (Kochia scoparia) = assay: Test D postemergence plant response; settings: for Kochia plant response rating: scale 0 to 100 (0 no effect, 100 complete control); for Plant response rating, Kochia: scale 0 to 100, 0 no effect, 100 complete control
In short: as §3

[11] = Postemergence, 31 g ai/ha, scale 0 to 100 (0 no effect, 100 complete control)
[12] = Postemergence, 62 g ai/ha, scale 0 to 100, 0 no effect, 100 complete control
[13] = Postemergence, 125 g ai/ha, scale 0 to 100, 0 no effect, 100 complete control
[14] = Preemergence, 16 g ai/ha, scale 0 to 100 (0 no effect, 100 complete control)
[15] = Preemergence, 31 g ai/ha, scale 0 to 100 (0 no effect, 100 complete control)
[16] = Preemergence, 62 g ai/ha, scale 0 to 100 (0 no effect, 100 complete control)
[17] = 31 g ai/ha, scale 0 to 100 (0 no effect, 100 complete control)
[18] = 62 g ai/ha, scale 0 to 100, 0 no effect, 100 complete control
[19] = 125 g ai/ha, scale 0 to 100, 0 no effect, 100 complete control
[20] = Postemergence, 16 g ai/ha, scale 0 to 100 (0 no effect, 100 complete control)

Cc1cc(-c2c(F)cccc2Oc2ncc(Cl)cn2)on1 [Compound 229]
Ducksalad plant response rating [1]: 90 | Sedge, Umbrella plant response rating [2]: 90 | Barnyardgrass plant response rating [3]: 55 | Rice plant response rating (rice (Oryza sativa)): 15 | Plant response rating (scale 0 to 100), Wheat ([4]; Postemergence, 16 g ai/ha): 0 | Wheat plant response rating [4, 11]: 10 | Wheat plant response rating [4, 12]: 5 | Plant response rating, Wheat [4, 13]: 10 | Plant response rating (scale 0 to 100), Wheat ([4]; Preemergence, 125 g ai/ha): 15 | Plant response rating, Wheat [4, 14]: 0 | Plant response rating, Wheat [4, 15]: 0 | Plant response rating, Wheat [4, 16]: 0 | Plant response rating (scale 0 to 100), Soybean (soybean (Glycine max); Postemergence, 16 g ai/ha): 20 | Soybean plant response rating (soybean (Glycine max); [11]): 40 | Soybean plant response rating (soybean (Glycine max); [12]): 45 | Plant response rating, Soybean (soybean (Glycine max); [13]): 70 | Plant response rating (scale 0 to 100), Soybean (soybean (Glycine max); Preemergence, 125 g ai/ha): 95 | Plant response rating, Soybean (soybean (Glycine max); [14]): 5 | Plant response rating, Soybean (soybean (Glycine max); [15]): 35 | Plant response rating, Soybean (soybean (Glycine max); [16]): 60 | Plant response rating (scale 0 to 100), Velvetleaf ([5]; Postemergence, 16 g ai/ha): 15 | Velvetleaf plant response rating [5, 11]: 60 | Velvetleaf plant response rating [5, 12]: 45 | Plant response rating, Velvetleaf [5, 13]: 70 | Plant response rating (scale 0 to 100), Velvetleaf ([5]; Preemergence, 125 g ai/ha): 100 | Plant response rating, Velvetleaf [5, 14]: 70 | Plant response rating, Velvetleaf [5, 15]: 90 | Plant response rating, Velvetleaf [5, 16]: 100 | Plant response rating (scale 0 to 100), Crabgrass, Large ([6]; Postemergence, 16 g ai/ha): 0 | Crabgrass, Large plant response rating [6, 11]: 0 | Plant response rating, Crabgrass, Large [6, 12]: 5 | Plant response rating, Crabgrass, Large [6, 13]: 5 | Plant response rating (scale 0 to 100), Crabgrass, Large ([6]; Preemergence, 125 g ai/ha): 100 | Plant response rating, Crabgrass, Large [6, 14]: 75 | Plant response rating, Crabgrass, Large [6, 15]: 85 | Plant response rating, Crabgrass, Large [6, 16]: 100 | Plant response rating (scale 0 to 100), Oilseed Rape ([7]; Postemergence, 16 g ai/ha): 45 | Oilseed Rape plant response rating [7, 11]: 70 | Oilseed Rape plant response rating [7, 12]: 60 | Plant response rating, Oilseed Rape [7, 13]: 80 | Plant response rating (scale 0 to 100), Oilseed Rape ([7]; Preemergence, 125 g ai/ha): 100 | Plant response rating, Oilseed Rape [7, 14]: 90 | Plant response rating, Oilseed Rape [7, 15]: 100 | Plant response rating, Oilseed Rape [7, 16]: 100 | Plant response rating (scale 0 to 100), Johnsongrass ([8]; Postemergence, 16 g ai/ha): 0 | Johnsongrass plant response rating [8, 11]: 0 | Plant response rating, Johnsongrass [8, 12]: 0 | Plant response rating, Johnsongrass [8, 13]: 25 | Plant response rating (scale 0 to 100), Johnsongrass ([8]; Preemergence, 125 g ai/ha): 70 | Plant response rating, Johnsongrass [8, 14]: 10 | Plant response rating, Johnsongrass [8, 15]: 10 | Plant response rating, Johnsongrass [8, 16]: 45 | Plant response rating (scale 0 to 100), Nutsedge, Yellow ([9]; Postemergence, 16 g ai/ha): 0 | Nutsedge, Yellow plant response rating [9, 11]: 0 | Nutsedge, Yellow plant response rating [9, 12]: 10 | Plant response rating, Nutsedge, Yellow [9, 13]: 10 | Plant response rating (scale 0 to 100), Nutsedge, Yellow ([9]; Preemergence, 125 g ai/ha): 45 | Plant response rating, Nutsedge, Yellow [9, 14]: 0 | Plant response rating, Nutsedge, Yellow [9, 15]: 0 | Plant response rating, Nutsedge, Yellow [9, 16]: 10 | Plant response rating (scale 0 to 100), Chickweed ([10]; 16 g ai/ha): 60 | Chickweed plant response rating ([10]; 31 g ai/ha): 60 | Plant response rating, Chickweed ([10]; 62 g ai/ha): 80 | Plant response rating, Chickweed ([10]; 125 g ai/ha): 85 | Plant response rating (scale 0 to 100), Oat, Wild (wild oat (Avena fatua); 16 g ai/ha): 0 | Oat, Wild plant response rating (wild oat (Avena fatua); [17]): 10 | Oat, Wild plant response rating (wild oat (Avena fatua); [18]): 10 | Plant response rating, Oat, Wild (wild oat (Avena fatua); [19]): 10 | Plant response rating (scale 0 to 100), Kochia (kochia (Kochia scoparia); 16 g ai/ha): 85 | Kochia plant response rating (kochia (Kochia scoparia); 31 g ai/ha): 90 | Plant response rating, Kochia (kochia (Kochia scoparia); 62 g ai/ha): 98 | Plant response rating, Kochia (kochia (Kochia scoparia); 125 g ai/ha): 98

Cc1cc(-c2ccccc2Oc2ncc(Cl)cn2)no1 [Compound 60]
Ducksalad plant response rating [1]: 80 | Sedge, Umbrella plant response rating [2]: 50 | Barnyardgrass plant response rating [3]: 20 | Rice plant response rating (rice (Oryza sativa)): 30 | Wheat plant response rating [4, 20]: 0 | Wheat plant response rating [4, 11]: 5 | Plant response rating, Wheat [4, 12]: 5 | Plant response rating, Wheat [4, 13]: 20 | Plant response rating (scale 0 to 100), Wheat ([4]; Preemergence, 125 g ai/ha): 0 | Plant response rating, Wheat [4, 14]: 0 | Plant response rating, Wheat [4, 15]: 0 | Plant response rating, Wheat [4, 16]: 0 | Soybean plant response rating (soybean (Glycine max); [20]): 65 | Soybean plant response rating (soybean (Glycine max); [11]): 65 | Plant response rating, Soybean (soybean (Glycine max); [12]): 95 | Plant response rating, Soybean (soybean (Glycine max); [13]): 95 | Plant response rating (scale 0 to 100), Soybean (soybean (Glycine max); Preemergence, 125 g ai/ha): 95 | Plant response rating, Soybean (soybean (Glycine max); [14]): 35 | Plant response rating, Soybean (soybean (Glycine max); [15]): 55 | Plant response rating, Soybean (soybean (Glycine max); [16]): 65 | Velvetleaf plant response rating [5, 20]: 40 | Velvetleaf plant response rating [5, 11]: 50 | Plant response rating, Velvetleaf [5, 12]: 65 | Plant response rating, Velvetleaf [5, 13]: 80 | Plant response rating (scale 0 to 100), Velvetleaf ([5]; Preemergence, 125 g ai/ha): 100 | Plant response rating, Velvetleaf [5, 14]: 60 | Plant response rating, Velvetleaf [5, 15]: 100 | Plant response rating, Velvetleaf [5, 16]: 100 | Crabgrass, Large plant response rating [6, 20]: 5 | Crabgrass, Large plant response rating [6, 11]: 5 | Plant response rating, Crabgrass, Large [6, 12]: 5 | Plant response rating, Crabgrass, Large [6, 13]: 5 | Plant response rating (scale 0 to 100), Crabgrass, Large ([6]; Preemergence, 125 g ai/ha): 100 | Plant response rating, Crabgrass, Large [6, 14]: 5 | Plant response rating, Crabgrass, Large [6, 15]: 55 | Plant response rating, Crabgrass, Large [6, 16]: 100 | Oilseed Rape plant response rating [7, 20]: 60 | Oilseed Rape plant response rating [7, 11]: 50 | Plant response rating, Oilseed Rape [7, 12]: 65 | Plant response rating, Oilseed Rape [7, 13]: 90 | Plant response rating (scale 0 to 100), Oilseed Rape ([7]; Preemergence, 125 g ai/ha): 100 | Plant response rating, Oilseed Rape [7, 14]: 80 | Plant response rating, Oilseed Rape [7, 15]: 98 | Plant response rating, Oilseed Rape [7, 16]: 90 | Johnsongrass plant response rating [8, 20]: 0 | Johnsongrass plant response rating [8, 11]: 0 | Plant response rating, Johnsongrass [8, 12]: 0 | Plant response rating, Johnsongrass [8, 13]: 5 | Plant response rating (scale 0 to 100), Johnsongrass ([8]; Preemergence, 125 g ai/ha): 45 | Plant response rating, Johnsongrass [8, 14]: 0 | Plant response rating, Johnsongrass [8, 15]: 0 | Plant response rating, Johnsongrass [8, 16]: 15 | Nutsedge, Yellow plant response rating [9, 20]: 0 | Nutsedge, Yellow plant response rating [9, 11]: 0 | Plant response rating, Nutsedge, Yellow [9, 12]: 0 | Plant response rating, Nutsedge, Yellow [9, 13]: 5 | Plant response rating (scale 0 to 100), Nutsedge, Yellow ([9]; Preemergence, 125 g ai/ha): 5 | Plant response rating, Nutsedge, Yellow [9, 14]: 0 | Plant response rating, Nutsedge, Yellow [9, 15]: 0 | Plant response rating, Nutsedge, Yellow [9, 16]: 0 | Chickweed plant response rating ([10]; 16 g ai/ha): 45 | Chickweed plant response rating ([10]; 31 g ai/ha): 50 | Plant response rating, Chickweed ([10]; 62 g ai/ha): 60 | Plant response rating, Chickweed ([10]; 125 g ai/ha): 75 | Oat, Wild plant response rating (wild oat (Avena fatua); 16 g ai/ha, scale 0 to 100 (0 no effect, 100 complete control)): 5 | Oat, Wild plant response rating (wild oat (Avena fatua); [17]): 0 | Plant response rating, Oat, Wild (wild oat (Avena fatua); [18]): 0 | Plant response rating, Oat, Wild (wild oat (Avena fatua); [19]): 5 | Kochia plant response rating (kochia (Kochia scoparia); 16 g ai/ha): 50 | Kochia plant response rating (kochia (Kochia scoparia); 31 g ai/ha): 50 | Plant response rating, Kochia (kochia (Kochia scoparia); 62 g ai/ha): 55 | Plant response rating, Kochia (kochia (Kochia scoparia); 125 g ai/ha): 90
